The record followed here is PubChem BioAssay AID274 (DTP/NCI, 2004).

Several values for one entry are separate records, joined by “and”; a condition that tells them apart may be missing. Identical values can stand only once. Toxic doses and inconclusive results are not listed.

The test concerns BDF1 mice, Lewis lung carcinoma iv, survival T/C. Put plainly: NCI In Vivo Anticancer Drug Screen. Data for tumor model Lewis Lung Carcinoma (intravenous) in B6D2F1 (BDF1) mice. Conditions: endpoint: median survival time, schedule: Q01DX009 (ip), higher = longer survival. On the procedure: The antitumor activity of compounds was measured in mice bearing transplantable tumors. Survival or tumor size were measured and the results are expressed as the measurement made in the treated group (T) divided by the measurement made in the vehicle treated control group (C). The tumor model used in this assay is Lewis Lung Carcinoma (intravenous) in B6D2F1 (BDF1) mice

[1] abbreviates: dose: 1.5 mg/kg/injection, vehicle: saline.
The mark [2] stands for this setting: dose: 3.0 mg/kg/injection, vehicle: saline.
The mark [3] stands for this setting: dose: 6.0 mg/kg/injection, vehicle: saline.
[4] abbreviates: dose: 6.25 mg/kg/injection, vehicle: saline with Tween-80.
Where [5] appears, read: dose: 12.5 mg/kg/injection, vehicle: saline with Tween-80.
Where [6] appears, read: dose: 25.0 mg/kg/injection, vehicle: saline with Tween-80.
Where [7] appears, read: dose: 50.0 mg/kg/injection, vehicle: saline with Tween-80.
Where [8] appears, read: dose: 100.0 mg/kg/injection, vehicle: saline with Tween-80.
Where [9] appears, read: dose: 200.0 mg/kg/injection, vehicle: saline with Tween-80.

As to `COc1ccc2nc3cc(Cl)ccc3c(NCCNCCNCCNc3c4ccc(Cl)cc4nc4ccc(OC)cc34)c2c1`, the T/C is, setting by setting: (dose: 3.12 mg/kg/injection, vehicle: Klucel (hydroxypropylcellulose) (HPC)) 99 % of control; (dose: 6.25 mg/kg/injection, vehicle: Klucel (hydroxypropylcellulose) (HPC)) 103 % of control; (dose: 12.5 mg/kg/injection, vehicle: Klucel (hydroxypropylcellulose) (HPC)) 89 % of control; (dose: 25.0 mg/kg/injection, vehicle: Klucel (hydroxypropylcellulose) (HPC)) 97 % of control.

For the molecule `[Cl][Pt+2][Cl].[NH-]CC1(C[NH-])CCCCC1`, the T/C under setting [1] was 96 % of control, the T/C under setting [2] was 96 % of control and the T/C under setting [3] is 102 % of control.

Turning to `O=S(=O)(O)O.[NH-]C1CCCCC1[NH-].[Pt+2]` (stereo not drawn), the T/C was 101 % of control (dose: 0.63 mg/kg/injection, vehicle: dextrose) and 110 % of control (dose: 1.25 mg/kg/injection, vehicle: dextrose).

Regarding `C/C(=N\NC(N)=O)c1cccc(/C(C)=N/NC(N)=O)n1`, the T/C under setting [4] was 104 % of control; the T/C under setting [5] was 100 % of control; the T/C under setting [6] is 98 % of control; the T/C under setting [7] is 103 % of control; the T/C under setting [8] was 106 % of control.

Regarding `C[C@H](CCC(=O)O)[C@H]1CC[C@H]2[C@@H]3[C@H](O)C[C@@H]4C[C@H](O)CC[C@]4(C)[C@H]3C[C@H](O)[C@]12C` (tested in a mixture with another compound), the T/C under setting [7] is 109 % of control, the T/C under setting [8] is 108 % of control and the T/C under setting [9] was 121 % of control.

With `CCCCc1ccc2nc(NC(=O)OC)[nH]c2c1`, the T/C runs as follows: under setting [4], 94 % of control; under setting [5], 92 % of control; under setting [6], 103 % of control; under setting [7], 102 % of control; under setting [8], 107 % of control.

As for `COC(=O)Nc1cccc(-c2nc3ccc(NC(=O)OC)cc3c(=O)n2-c2ccccc2)c1`, the T/C is 95 % of control (dose: 8.0 mg/kg/injection, vehicle: Klucel (hydroxypropylcellulose) (HPC)); 92 % of control (dose: 8.0 mg/kg/injection, vehicle: saline); 92 % of control (dose: 16.0 mg/kg/injection, vehicle: Klucel (hydroxypropylcellulose) (HPC)); 97 % of control (dose: 16.0 mg/kg/injection, vehicle: saline); 99 % of control (dose: 32.0 mg/kg/injection, vehicle: Klucel (hydroxypropylcellulose) (HPC)); 109 % of control (dose: 32.0 mg/kg/injection, vehicle: saline). For the same molecule, the T/C was 109 % of control (dose: 64.0 mg/kg/injection, vehicle: Klucel (hydroxypropylcellulose) (HPC)); 108 % of control (dose: 64.0 mg/kg/injection, vehicle: saline); 115 % of control (dose: 128.0 mg/kg/injection, vehicle: saline).

`COc1cccc2c1C(=O)c1c(O)c3c(c(O)c1C2=O)C[C@@](O)(/C(C)=N\NC(=O)CO)C[C@@H]3OC1CC(N)C(O)C(C)O1` (stereo partly drawn): the T/C is, setting by setting: (dose: 0.37 mg/kg/injection, vehicle: saline) 105 % of control; (dose: 0.75 mg/kg/injection, vehicle: saline) 106 % of control; under setting [1], 101 % of control; under setting [2], 115 % of control; under setting [3], 103 % of control; (dose: 12.0 mg/kg/injection, vehicle: saline) 105 % of control.

In the case of `c1ccc([I+]c2ccccc2)cc1`, the T/C was 98 % of control (dose: 1.0 mg/kg/injection, vehicle: saline); 100 % of control (dose: 2.0 mg/kg/injection, vehicle: saline); 109 % of control (dose: 4.0 mg/kg/injection, vehicle: saline).

For the molecule `S=P(N1CC1)(N1CC1)N1CC1`, the T/C is, setting by setting: (dose: 1.0 mg/kg/injection, vehicle: saline with Tween-80) 106 % of control and 110 % of control and 116 % of control; (dose: 2.0 mg/kg/injection, vehicle: saline with Tween-80) 113 % of control (2×) and 116 % of control; (dose: 4.0 mg/kg/injection, vehicle: saline with Tween-80) 118 % of control and 119 % of control and 123 % of control; (dose: 8.0 mg/kg/injection, vehicle: saline with Tween-80) 100 % of control and 110 % of control; (dose: 16.0 mg/kg/injection, vehicle: saline with Tween-80) 112 % of control.

In the case of `COc1ccc(C(Cn2ccnc2)Sc2ccc(Cl)c(Cl)c2)cc1` (stereo not drawn), the T/C by setting is: under setting [4], 95 % of control; under setting [5], 97 % of control; under setting [6], 96 % of control; under setting [7], 100 % of control.

On to `CCCC(=O)O`, for which the T/C reads like this: (dose: 12.5 mg/kg/injection, vehicle: saline) 93 % of control; (dose: 25.0 mg/kg/injection, vehicle: saline) 104 % of control; (dose: 50.0 mg/kg/injection, vehicle: saline) 95 % of control; (dose: 100.0 mg/kg/injection, vehicle: saline) 112 % of control.

Take `COc1ccc(-c2csc(=[N+]3CCCCC3)s2)cc1`: the T/C was 94 % of control (dose: 1.56 mg/kg/injection, vehicle: water); 101 % of control (dose: 3.12 mg/kg/injection, vehicle: water); 100 % of control (dose: 6.25 mg/kg/injection, vehicle: water); 99 % of control (dose: 12.5 mg/kg/injection, vehicle: water); 108 % of control (dose: 25.0 mg/kg/injection, vehicle: water).

Take `Cc1nc(N)nc(N)c1-c1ccc(Cl)c(Cl)c1`: the T/C is 108 % of control (dose: 0.31 mg/kg/injection, vehicle: saline); 109 % of control (dose: 0.63 mg/kg/injection, vehicle: saline); 113 % of control (dose: 1.25 mg/kg/injection, vehicle: saline); 120 % of control (dose: 2.5 mg/kg/injection, vehicle: saline); 109 % of control (dose: 5.0 mg/kg/injection, vehicle: saline).

Consider `Oc1ccc2ccccc2c1N=Nc1ccc(F)cc1`, for which the T/C runs as follows: under setting [8], 106 % of control; under setting [9], 91 % of control; (dose: 400.0 mg/kg/injection, vehicle: saline with Tween-80) 106 % of control.

For `CC(=O)OCC1OC(n2ncc(=O)[nH]c2=O)C(OC(C)=O)C1OC(C)=O` (stereo not drawn), the T/C was 100 % of control (dose: 100.0 mg/kg/injection, vehicle: Klucel (hydroxypropylcellulose) (HPC)); 109 % of control (dose: 200.0 mg/kg/injection, vehicle: Klucel (hydroxypropylcellulose) (HPC)); 107 % of control (dose: 400.0 mg/kg/injection, vehicle: Klucel (hydroxypropylcellulose) (HPC)).

Turning to `COc1cc2ccnc(/C=N\NC(N)=S)c2cc1OC`, the T/C under setting [6] is 101 % of control, the T/C under setting [7] is 97 % of control, the T/C under setting [8] is 92 % of control and the T/C under setting [9] is 103 % of control.

As for `CC1(C)CC23C4COC(=O)C2CCC1C3CC4=O` (stereo not drawn), the T/C was 109 % of control (dose: 1.5 mg/kg/injection, vehicle: DMSO); 161 % of control (dose: 6.0 mg/kg/injection, vehicle: DMSO); 285 % of control (dose: 12.0 mg/kg/injection, vehicle: DMSO); 185 % of control (dose: 24.0 mg/kg/injection, vehicle: DMSO); 180 % of control (dose: 48.0 mg/kg/injection, vehicle: DMSO).
